# Measurements: US20100203084A1, “METHOD FOR TREATING PAIN OR OPIOID DEPENDENCE USING A SPECIFIC TYPE OF NON-OPIOID AGENT IN COMBINATION WITH A SELECTIVE EXCITATORY-OPIOID-RECEPTOR INACTIVATOR” (priority 2006, published 2010)
# “Also recorded” adds a separate entry of the source.
# Assays:
# [1] = system: Swiss-Webster mice; conditions: mouse, in vivo
# [2] = system: rodents; conditions: high doses, administered immediately after training, rodents (ref. 20); cited from earlier work
# [3] = system: chronic morphine-dependent mice; assay: naloxone-precipitated withdrawal hyperalgesia in chronic morphine-dependent mice (tail-flick); conditions: naltrexone 0.1 ng/kg with naloxone, FIG. 9
# [4] = several species, including rat and human (ref. 20); cited from earlier work
# [5] = system: rodents and humans; conditions: moderately low doses (˜1 μg/kg), rodents and humans (refs. 20-22); cited from earlier work
compound,measurement,setting,value
"CC(C)Cn1c(=O)n(C)c(=O)c2[nH]cnc21 [IBMX, 3-isobutyl-1-methylxanthine]","duration of hyperalgesia, IBMX alone",[1],> 3 h
same,"effect on tail-flick latencies, IBMX alone",[1],long-lasting hyperalgesia
same,effect on memory in passive avoidance tasks,[2],improve memory
"N[C@@H](CCC(=O)O)C(=O)[O-].[Na+] [MSG, monosodium glutamate]","effect on tail-flick latencies, MSG alone, 10-fold-higher dose",[1],evokes hyperalgesia
same,"effect on tail-flick latencies, MSG alone, lower dose",[1],does not evoke significant hyperalgesia
"O=C1CC[C@@]2(O)[C@H]3Cc4ccc(O)c5c4[C@@]2(CCN3CC2CC2)[C@H]1O5 [NTX, naltrexone]",effect of cotreatment with 1 pg/kg rolipram in normal mice,[1],"prominent, long-lasting analgesia"
same,effect of delayed high-dose NTX on analgesia from rolipram 1 μg/kg plus CTX-B,[1],rapidly blocked
same,effect of delayed much higher dose of NTX in MSG + NTX cotreated mice,[1],blocked both hyperalgesia and analgesia
same,effect of high-dose NTX on analgesia from glutamic acid cotreatment,[1],rapid attenuation of the initially prominent analgesia
same,effect of high-dose NTX on analgesia from non-narcotic cotreatment,[1],antagonized rapidly
same,effect of second dose of NTX alone 24 h after initial cotreatment with rolipram 1 μg/kg,[1],evoked significant analgesia
same,effect of second injection of high-dose NTX on NMDA-evoked hyperalgesia and NMDA+NTX analgesia,[1],rapid attenuation of the initially prominent hyperalgesia
same,effect of ultra-low-dose NTX co-administered with thousand- to million-fold lower dose of rolipram,[1],"remarkable degree of opioid receptor-mediated, long-lasting analgesia"
same,"effect of ultra-low-dose NTX cotreatment on hyperalgesia evoked by glutamate, NMDA, IBMX or rolipram",[1],"rapidly blocked and reversed to prominent, long-lasting analgesia"
same,"effect on tail-flick latencies, cotreatment with 1 mg/kg NMDA",[1],"blocked NMDA-evoked hyperalgesia, and resulted in prominent analgesia"
same,"effect on tail-flick latencies, cotreatment with 1 mg/kg glutamic acid",[1],"blocked glutamic-acid-evoked hyperalgesia, and resulted in prominent analgesia"
same,"effect on tail-flick latencies, cotreatment with 10 mg/kg IBMX, high-dose NTX",[1],"not only blocked IBMX-evoked hyperalgesia, but also blocked onset of analgesia during the first hour after dosing"
same,"effect on tail-flick latencies, cotreatment with MSG 1 mg/kg",[1],Prominent analgesia
same,"effect on tail-flick latencies, cotreatment with rolipram 1 pg/kg",[1],remarkably similar degree of analgesia
same,"effect on tail-flick latencies, cotreatment with rolipram 1 μg/kg",[1],results in prominent analgesia
same,"effect on tail-flick latencies, inactivator alone (control)",[1],no alterations in tail-flick latencies
same,"effect on tail-flick latencies, cotreatment with 10 mg/kg IBMX, ultra-low-dose NTX",[1]; sc,"blocked IBMX-evoked hyperalgesia, and resulted in prominent analgesia"
same,"effect on tail-flick latencies, cotreatment with 10-fold-higher dose of MSG",[1]; sc,Prominent analgesia
same,effect of ultra-low-dose naltrexone cotreatment on naloxone-precipitated withdrawal hyperalgesia,[3],rapidly converted to analgesia
"CN[C@H](CC(=O)O)C(=O)O [NMDA, N-methyl-D-aspartate]","duration of hyperalgesia, NMDA alone",[1],> 5 h
same,"effect on tail-flick latencies, NMDA alone",[1],decreases in tail-flick latencies (indicating hyperalgesia)
"Oc1ccc2c3c1O[C@H]1c4[nH]c5c(c4C[C@@]4(O)[C@@H](C2)N(CC2CC2)CC[C@]314)C[C@@]1(O)[C@H]2Cc3ccc(O)c4c3[C@@]1(CCN2CC1CC1)[C@H]5O4 [nor-BNI, nor-binaltorphimine]","effect on tail-flick latencies, ultra-low-dose mu- or kappa-opioid receptor antagonist cotreatment with rolipram",[1],larger magnitude of analgesia
CCOC(=O)C1=C[C@@H](OC(CC)CC)[C@H](NC(C)=O)[C@@H](N)C1 [oseltamivir],effect of cotreatment with 1 pg/kg rolipram in normal mice,[1],"prominent, long-lasting analgesia"
"NC(CCC(=O)O)C(=O)O (racemic) [glutamic acid, dl-glutamic acid]","duration of hyperalgesia, glutamic acid alone",[1],> 6 h
same,"effect on tail-flick latencies, glutamic acid alone",[1],long-lasting hyperalgesia
"COC(=O)/C=C/C(=O)N[C@@H]1CC[C@@]2(O)[C@H]3Cc4ccc(O)c5c4[C@@]2(CCN3CC2CC2)[C@H]1O5 [β-FNA, β-funaltrexamine]","effect on tail-flick latencies, ultra-low-dose mu- or kappa-opioid receptor antagonist cotreatment with rolipram",[1],block the acute hyperalgesic effects of rolipram and result in prominent analgesia
C[C@H](NC(=O)[C@@H](CC(=O)NO)Cc1ccccc1)C(=O)O [kelatorphan],effect of kelatorphan on analgesic response to 1 pg/kg rolipram plus 0.1 ng/kg NTX,[1],prolongs the duration of the analgesic response
same,"effect on baseline tail-flick latency, kelatorphan alone",[1],does not alter baseline tail-flick latency
same,"effect on tail-flick latencies, kelatorphan 0.1 mg/kg cotreatment with rolipram 1 pg/kg",[1],prominent analgesia
same,"effect on tail-flick latencies, kelatorphan 1 mg/kg cotreatment with rolipram 1 pg/kg",[1],elicits prominent analgesia
COc1ccc(C2CNC(=O)C2)cc1OC1CCCC1 (stereo not drawn) [rolipram],"effect on tail-flick latencies, rolipram alone, 1 pg/kg",[1],no detectable hyperalgesic effect; also recorded: does not alter baseline tail-flick latency
same,"effect on tail-flick latencies, rolipram alone, 1 μg/kg",[1],acute hyperalgesic effects
same,persistence of effect of a single low dose of rolipram,[1],still effective for more than one day
same,absorption after oral administration,[4],absorbed fully and rapidly
same,effect on memory in passive avoidance tasks,[2],improve memory
same,adverse side-effects,[5],relatively moderate adverse side-effects
same,effect on memory behavior,[5],significant enhancement in memory behavior
